This experiment has as its target T1, RIPK1 (Homo sapiens, UniProt Q13546).
T1 construct: recombinant GST-RIPK1 kinase domain (residues 1-327) enzyme produced from baculovirus-transfected Sf21 cells; host or cells: baculovirus-transfected Sf21 insect cells
T1 sequence (Q13546 1-327): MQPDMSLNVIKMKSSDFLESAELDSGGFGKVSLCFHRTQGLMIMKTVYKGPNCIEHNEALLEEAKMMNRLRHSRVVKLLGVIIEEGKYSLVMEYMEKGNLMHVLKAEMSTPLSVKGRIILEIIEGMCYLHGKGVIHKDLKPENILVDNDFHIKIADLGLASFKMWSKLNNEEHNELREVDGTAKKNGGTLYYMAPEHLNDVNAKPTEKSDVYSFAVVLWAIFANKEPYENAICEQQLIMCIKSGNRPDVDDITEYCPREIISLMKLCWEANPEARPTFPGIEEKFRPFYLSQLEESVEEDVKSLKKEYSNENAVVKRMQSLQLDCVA
In words: RIPK1-ADP-Glo enzymatic assay. It is filed as biochemical. The settings on record: ADP-Glo luminescent ADP detection; 25 nM GST-RIPK1 kinase domain (residues 1-327), 300 μM ATP, dephosphorylated-MBP substrate; 30 min pre-incubation, 150 min reaction. The protocol: RIPK1-ADP-Glo Enzymatic Assay
The enzymatic activity of RIPK1 is measured using an assay derived from ADP-Glo kit (Promega™), which provides a luminescent-based ADP detection system. Specifically, the ADP generated by RIPK1 kinase is proportionally detected as luminescent signals in a homogenous fashion. In this context, the assessment of the inhibitory effect of small molecules (EC50) is measured by the effectiveness of the compounds to inhibit the ATP to ADP conversion by RIPK1.
In this assay, the potency (EC50) of each compound was determined from a ten-point (1:3 serial dilution; top compound concentration of 100000 nM) titration curve using the following outlined procedure. To each well of a white ProxiPlus 384 well-plate, 30 nL of compound (1% DMSO in final assay volume of 3 μL) was dispensed, followed by the addition of 2 μL of 1×assay buffer (25 mM Hepes 7.3, 20 mM MgCl2, 50 mM NaCl, 1 mM DTT, 0.005% Tween20, and 0.02% BSA) containing 37.5 nM of GST-RIPK1 (recombinant GST-RIPK1 kinase domain (residues 1-327) enzyme produced from baculovirus-transfected Sf21 cells: MW=62 kDa). Plates were placed in an ambient temperature humidified chamber for a 30 minutes pre-incubation with compound. Subsequently, each reaction was initiated by the addition of 1 μL 1×assay buffer containing 900 μM ATP and […] dephosphorylated-MBP substrate. The final reaction in each well of 3 μL consists of 25 nM of GST-RIPK1, 300 μM ATP, and 3 μM dephosphorylated-MBP. Kinase reactions were allowed to proceed for 150 minutes prior to adding ADP-Glo reagents per Promega's outlined kit protocol. Dose-response curves were generated by plotting percent effect (% product conversion; Y-axis) vs. Log10 compound concentrations (X-axis). EC50 values were calculated using a non-linear regression, four-parameters sigmoidal dose-response model.

Molecules are shown by their SMILES. Counter-ions that a name gives are not always drawn.

We go through 28 compounds from patent US20230265094A1, “RIPK1 INHIBITORS AND METHODS OF USE” (Merck Sharp & Dohme LLC, priority 2020, published 2023).

`Cc1noc(C2CN(C(=O)N3N=CC[C@H]3c3cc(F)cc(F)c3)C2)n1` [Example 1.55, (S)-(5-(3,5-difluorophenyl)-4,5-dihydro-1H-pyrazol-1-yl)(3-(3-methyl-1,2,4-oxadiazol-5-yl)azetidin-1-yl)methanone] showed an EC50 of 175 nM. Next, `O=C(N1CC(S(=O)(=O)c2ccc(Br)cc2)C1)N1N=CC[C@H]1c1cc(F)cc(F)c1` [Example 1.57, (S)-(3-((4-bromophenyl)sulfonyl)azetidin-1-yl)(5-(3,5-difluorophenyl)-4,5-dihydro-1H-pyrazol-1-yl)methanone]: 12.4 nM; `O=C(N1CC(Oc2ccccn2)C1)N1N=CC[C@H]1c1cc(F)cc(F)c1` [Example 1.58, (S)-(5-(3,5-difluorophenyl)-4,5-dihydro-1H-pyrazol-1-yl)(3-(pyridin-2-yloxy)azetidin-1-yl)methanone]: 1380 nM; `O=C(N1CC(OC2CCCCC2)C1)N1N=CC[C@H]1c1cc(F)cc(F)c1` [Example 1.59, (S)-(3-(cyclohexyloxy)azetidin-1-yl)(5-(3,5-difluorophenyl)-4,5-dihydro-1H-pyrazol-1-yl)methanone]: 245 nM.

Compound `O=C(N1CCC1)N1N=CC[C@H]1c1cc(F)cc(F)c1` [Example 1.60, (S)-azetidin-1-yl(5-(3,5-difluorophenyl)-4,5-dihydro-1H-pyrazol-1-yl)methanone] returned an EC50 of 64.5 nM. Next, `N#Cc1ccc(OC2CN(C(=O)N3N=CC[C@H]3c3cc(F)cc(F)c3)C2)cn1` [Example 1.61, (S)-5-((1-(5-(3,5-difluorophenyl)-4,5-dihydro-1H-pyrazole-1-carbonyl)azetidin-3-yl)oxy)picolinonitrile]: 26.3 nM; `COC1CN(C(=O)N2N=CC[C@H]2c2cc(F)cc(F)c2)C1` [Example 2.1, (S)-(5-(3,5-difluorophenyl)-4,5-dihydro-1H-pyrazol-1-yl)(3-methoxyazetidin-1-yl)methanone]: 11 nM; `CCOC1CN(C(=O)N2N=CC[C@H]2c2cc(F)cc(F)c2)C1` [Example 2.2, (S)-(5-(3,5-difluorophenyl)-4,5-dihydro-1H-pyrazol-1-yl)(3-ethoxyazetidin-1-yl)methanone]: 27.2 nM. The value for `O=C(N1CC(Nc2ccccc2)C1)N1N=CC[C@H]1c1cc(F)cc(F)c1` [Example 2.3, (S)-(5-(3,5-difluorophenyl)-4,5-dihydro-1H-pyrazol-1-yl)(3-(phenylamino)azetidin-1-yl)methanone] was 6.7 nM; that for `O=C(N1CC(Oc2ccccc2)C1)N1N=CC[C@H]1c1ccc(Cl)cc1` [Example 2.6, (S)-(5-(4-chlorophenyl)-4,5-dihydro-1H-pyrazol-1-yl)(3-phenoxyazetidin-1-yl)methanone] was 9.6 nM.

Regarding `CC(C)C1(O)CN(C(=O)N2N=CC[C@H]2c2ccc(Cl)cc2)C1` [Example 2.7, (S)-(5-(4-chlorophenyl)-4,5-dihydro-1H-pyrazol-1-yl)(3-hydroxy-3-isopropylazetidin-1-yl)methanone], a half-maximal effect (EC50) was put at 5160 nM. Next, `O=C(N1CC(O)(c2ccccc2)C1)N1N=CC[C@H]1c1ccc(Cl)cc1` [Example 2.8, (S)-(5-(4-chlorophenyl)-4,5-dihydro-1H-pyrazol-1-yl)(3-hydroxy-3-phenylazetidin-1-yl)methanone]: 2430 nM; `O=C(N1CC(Nc2ccccc2)C1)N1N=CC[C@H]1c1ccc(Cl)cc1` [Example 2.9, (S)-(5-(4-chlorophenyl)-4,5-dihydro-1H-pyrazol-1-yl)(3-(phenylamino)azetidin-1-yl)methanone]: 22.7 nM; `O=C(N1CC(Cc2ccccc2)C1)N1N=CC[C@H]1c1ccc(Cl)cc1` [Example 2.10, (S)-(3-benzylazetidin-1-yl)(5-(4-chlorophenyl)-4,5-dihydro-1H-pyrazol-1-yl)methanone]: 11.4 nM. As to `O=C(N1CC(O)(C(F)(F)F)C1)N1N=CC[C@H]1c1ccc(Cl)cc1` [Example 2.11, (S)-(5-(4-chlorophenyl)-4,5-dihydro-1H-pyrazol-1-yl)(3-hydroxy-3-(trifluoromethyl)azetidin-1-yl)methanone], a half-maximal effect (EC50) was put at 578 nM.

For `CC(C)OC1CN(C(=O)N2N=CC[C@H]2c2ccc(Cl)cc2)C1` [Example 2.12, (S)-(5-(4-chlorophenyl)-4,5-dihydro-1H-pyrazol-1-yl)(3-isopropoxyazetidin-1-yl)methanone], the concentration giving a half-maximal response (EC50) was determined as 10.6 nM. The value for `COC1(C)CN(C(=O)N2N=CC[C@H]2c2ccc(Cl)cc2)C1` [Example 2.13, (S)-(5-(4-chlorophenyl)-4,5-dihydro-1H-pyrazol-1-yl)(3-methoxy-3-methylazetidin-1-yl)methanone] was 64.9 nM; that for `O=C(N1CC(Oc2ccccc2)C1)N1N=CC[C@H]1c1cccnc1` [Example 2.14, (S)-(3-phenoxyazetidin-1-yl)(5-(pyridin-3-yl)-4,5-dihydro-1H-pyrazol-1-yl)methanone] was 20.5 nM; that for `O=C(N1CC(Oc2ccccc2)C1)N1N=CC[C@@H]1c1cccnc1` [Example 2.15, (R)-(3-phenoxyazetidin-1-yl)(5-(pyridin-3-yl)-4,5-dihydro-1H-pyrazol-1-yl)methanone] was 95.6 nM. `O=C(N1CC(Oc2ccccc2)C1)N1N=CC[C@H]1C12CCC(CC1)C2` [Example 2.16, ((5S)-5-(bicyclo[2.2.1]heptan-1-yl)-4,5-dihydro-1H-pyrazol-1-yl)(3-phenoxyazetidin-1-yl)methanone] displayed an EC50 of 92.7 nM. The value for `CN(c1ccccc1)C1CN(C(=O)N2N=CC[C@H]2c2cc(F)cc(F)c2)C1` [Example 2.17, (S)-(5-(3,5-difluorophenyl)-4,5-dihydro-1H-pyrazol-1-yl)(3-(methyl(phenyl)amino)azetidin-1-yl)methanone, TFA salt] was 7.1 nM; that for `C[C@H]1[C@@H](Oc2ccc(F)cc2)CN1C(=O)N1N=CC[C@H]1c1cncc(F)c1` [Example 2.18, ((2S,3S)-3-(4-fluorophenoxy)-2-methylazetidin-1-yl)((S)-5-(5-fluoropyridin-3-yl)-4,5-dihydro-1H-pyrazol-1-yl)methanone] was 10 nM; that for `Cc1ncc([C@@H]2CC=NN2C(=O)N2C[C@H](Oc3ccc(F)cc3)[C@@H]2C)cc1F` [Example 2.19, ((S)-5-(5-fluoro-6-methylpyridin-3-yl)-4,5-dihydro-1H-pyrazol-1-yl)((2S,3S)-3-(4-fluorophenoxy)-2-methylazetidin-1-yl)methanone] was 12.3 nM. `C[C@@H]1[C@H](Oc2ccc(F)cc2)CN1C(=O)N1N=CC[C@H]1c1ccc(Cl)cc1` [Example 2.20, ((S)-5-(4-chlorophenyl)-4,5-dihydro-1H-pyrazol-1-yl)((2R,3R)-3-(4-fluorophenoxy)-2-methylazetidin-1-yl)methanone] returned an EC50 of 25.7 nM.

`C[C@@H]1[C@H](Oc2ccc(F)cc2)CN1C(=O)N1N=CC[C@H]1c1cc(F)cc(F)c1` [Example 2.21, ((S)-5-(3,5-difluorophenyl)-4,5-dihydro-1H-pyrazol-1-yl)((2R,3R)-3-(4-fluorophenoxy)-2-methylazetidin-1-yl)methanone] had a half-maximal effective concentration (EC50) of 39.1 nM.

Compound `C[C@@H]1[C@@H](Oc2ccc(F)cc2)CN1C(=O)N1N=CC[C@H]1c1cncc(F)c1` [Example 2.22, ((2R,3S)-3-(4-fluorophenoxy)-2-methylazetidin-1-yl)((S)-5-(5-fluoropyridin-3-yl)-4,5-dihydro-1H-pyrazol-1-yl)methanone] had a concentration for a half-maximal effect (EC50) of 7.6 nM. Compound `Cc1ncc([C@@H]2CC=NN2C(=O)N2C[C@H](Oc3ccc(F)cc3)[C@H]2C)cc1F` [Example 2.23, ((S)-5-(5-fluoro-6-methylpyridin-3-yl)-4,5-dihydro-1H-pyrazol-1-yl)((2R,3S)-3-(4-fluorophenoxy)-2-methylazetidin-1-yl)methanone] showed a concentration for a half-maximal effect (EC50) of 10.1 nM.

In turn, `C[C@@H]1[C@@H](Oc2ccc(F)cc2)CN1C(=O)N1N=CC[C@H]1c1cncc(C#N)c1` [Example 2.24, 5-((S)-1-((2R,3S)-3-(4-fluorophenoxy)-2-methylazetidine-1-carbonyl)-4,5-dihydro-1H-pyrazol-5-yl)nicotinonitrile] displayed a half-maximal effective concentration (EC50) of 11.4 nM.
